Measurements taken from patent publication US5256820A, “1-alkyl-2-acyl-1,2-disulfonylhydrazines” (Yale University, priority 1991, dated 1993).
“Also recorded” adds a separate entry of the source. Values belong to the compound of their own block, whether it stands above or below them.

What was measured:
[1] = Spontaneous decomposition (hydrolysis) in aqueous phosphate buffer, phenol red proton release assay; assay type: physicochemical
Procedure: The compounds of the invention are relatively stable. As a measure of their stability, spontaneous decomposition in aqueous media was measured in phosphate buffer, pH 7.4 (37° C.). Hydrolysis at N-1 would result in the generation of a carboxylic acid and the corresponding 1,2-bis(methylsulfonyl)-1-(2-chloroethyl)hydrazine. Since both of these compounds are ionized under these conditions, the release of protons can be used to follow the decomposition of these and related compounds. The release of protons can be assayed by following the decrease in absorbance at 560 nm of a weakly buffered (1 mM potassium phosphate) phenol red (21 mg/L) solution. The assay has been calibrated using HC1 standards. […] The spontaneous hydrolysis of the compound of Example 1 at pH 7.4, 37° C. in 1 mM phosphate buffer occurs at approximately 0.7% of the rate of the corresponding prior art compounds [1,2,2-tris(methylsulfonyl)-1-(2-chloroethyl)hydrazine] under the same conditions. The rate of hydrolysis was highly sensitive to changes in temperature and pH (Tables II and III). […] At pH 7.4, 37° C., a 200 μM solution of the compound of Example 1 hydrolyzes at the rate of approximately 0.6% per hour. […] Therefore, stable aqueous solutions of this agent can be formulated. The other analogs synthesized according to Examples 2-6 also hydrolyzed at relatively slow rates.

L1210 leukemia = assay: Survival time of mice bearing the L1210 leukemia; assay type: in vivo, mouse; details: for antineoplastic activity / curative effect (in words): L1210 leukemia mice; for % 60-day survivors / % T/C (average survival time of treated/control mice × 100) / AvΔ wt % (average percent change in body weight from onset to termination of therapy): at opt. effective daily dose; for % T/C (average survival time of treated/control mice × 100): 60-day survivors not included; for AvΔ wt % (average percent change in body weight from onset to termination of therapy): vehicle control +2.0; for Opt. effective daily dose: once daily for six consecutive days, beginning 24 h after tumor implantation, L1210 mice
Procedure: The antineoplastic activity of each of the compounds of Examples 1-6 was assessed by measuring their effects on the survival time of mice bearing the L1210 leukemia by the method generally disclosed in Shyam et al. J. Med. Chem. (1990) 33:2259-2264. The compounds were administered once daily for six consecutive days. Percent change in body weight from onset to termination of therapy was recorded. The results are summarized in Table I. All of the compounds tested produced at least partial 60-day "cures" of mice bearing the L1210 leukemia. […] This compound also produced 80-90% "cures" at 10 and 15 mg/kg×6.
Effects of 2-Acyl-1,2-bis(methylsulfonyl)-1-
^a Administered once daily for six consecutive days, beginning 24 h
after tumor implantation, with 5-10 mice being used per group.
^b Average day of death for untreated tumorbearing mice was 8.4.
^c Average percent change in body weight from onset to termination of
therapy. Average percent change in body weight for vehicletreated control
^d % T/C = average survival time of treated/control mice × 100;
60day survivors are listed separately and are not included in this

[2] = Alkylation of 4-(4'-nitrobenzyl)pyridine in presence and absence of bovine serum; details: 4 mM compound, 37° C., 1 h, 100 mM phosphate buffer pH 7.4
Procedure: Serum was capable of stimulating the alkylation of the model nucleophile, 4-(4'-nitrobenzyl)pyridine, by 2-acyl-1,2-bis(methylsulfonyl)-1-(2-chloroethyl)hydrazines, providing direct evidence for the serum-dependent generation of the alkylating species from these prodrugs (Table V).
Relative Alkylation of 4-(4'-Nitrobenzyl)pyridine
(NBP) by 4 mM 2-Acetyl-1,2-bis(methylsulfonyl)-1-(2-
chloroethyl)hydrazine at 37° C. for 1 h in 100 mM Phosphate
Buffer (pH 7.4) in the Presence and Absence of 20% Bovine

[3] = Hydrolysis in the presence of bovine serum; assay type: in vitro ADME; details: for Rate of hydrolysis: 200 μM solution
Text: (§1) To verify that the prodrugs would be converted to alkylating species in vivo, we performed studies on the kinetics of hydrolysis of these compounds in the presence of serum and also in the presence of proteinase K (a protease of low specificity). […] Serum from different sources, i.e., mouse, bovine and man, were not equivalent in their activities or in their rank order of substrate specificity. […] Table IV reports the effects of bovine serum concentrates on hydrolysis of two compounds--the compounds of Example 1 and Example 6.
Effects of Bovine Serum Concentration on the
^a Expressed nmol/ml/min for a 200 μM solution.

Water solubility = assay type: physicochemical
[4] = Shyam et al. J. Med. Chem. (1990) 33:2259-2264; cited from earlier work
[5] = Stewart and Evans (1989); cited from earlier work
[6] = Hydrolysis in the presence of serum from different sources (mouse, bovine, man); assay type: in vitro ADME; details: bovine and man, in all cases
Text: as §1

[7] = Prodrug activation by GSH, methanol generation determined using alcohol oxidase
Procedure: Our belief is confirmed by the following experiment in which we incubated a solution of 2-benzoyl-1,2-bis(methylsulfonyl)-1-methylhydrazine (R=C6 H5) in phosphate buffer (pH 7.4) at 37° C. in the presence and absence of GSH. The amount of methanol generated in 10 min, determined using alcohol oxidase by methodology described by Penketh et al. (1990) 33:730-732, was used as a measure of activation of the prodrug. In the presence of 1 mM GSH, the amount of methanol generated increased approximately 10-fold, relative to that occurring in phosphate buffer alone. […] In the case of the 1-(2-chloroethyl) derivative (the compound of Example 6), 22although precise quantitation was difficult due to the limitations of the assay, the compound of Example 6 gave a 6- to 7-fold greater amount of alkylated product when reacted with the nucleophile 4-(4'-nitrobenyl)pyridine in the presence of 5 mM GSH for 30 min at 37° C. than in its absence.

[8] = test system: GST (glutathione-S-transferase), equine liver enzyme; assay: GST-catalyzed GSH activation of prodrug; assay type: biochemical; details: 13.5 units/ml equine liver GST
Text: Therefore, tumors resistant to conventional chloroethylating agents because of the protective effect conferred by high levels of intracellular thiols, may be more sensitive to 2-acyl-1,2-bis(methylsulfonyl)-1-methyl (or 2-chloroethyl)hydrazines. […] Although elevation of GST levels has been associated with increased resistance to a variety of alkylating agents, such a change is expected to increase sensitivity to the thiol-activated prodrugs.

Compound: CC(=O)N(N(CCCl)S(C)(=O)=O)S(C)(=O)=O [Example 1, 1-Acetyl-1,2-bis(methylsulfonyl)-2-(2-chloroethyl)hydrazine]
Relative rate of hydrolysis ([1]; 23 °C (37 °C = 1.00)): 0.21
Relative rate of hydrolysis ([1]; 30 °C (37 °C = 1.00)): 0.57
Relative rate of hydrolysis ([1]; 32 °C (37 °C = 1.00)): 0.72
Relative rate of hydrolysis ([1]; 37 °C (reference, 1.00)): 1.00
increase of hydrolysis rate with pH ([1]; for every 0.2 unit rise in pH, pH 7.4-7.8 range): approximately 50%
change of hydrolysis rate with temperature ([1]; for every 5° C. rise in temperature): double
Relative rate of hydrolysis ([1]; pH 7.4 (pH 7.8 = 1.00)): 0.48
rate of spontaneous hydrolysis relative to prior art compound ([1]; pH 7.4, 37° C., 1 mM phosphate buffer, vs 1,2,2-tris(methylsulfonyl)-1-(2-chloroethyl)hydrazine): approximately 0.7%
Relative rate of hydrolysis ([1]; pH 7.5 (pH 7.8 = 1.00)): 0.57
Relative rate of hydrolysis ([1]; pH 7.6 (pH 7.8 = 1.00)): 0.70
Relative rate of hydrolysis ([1]; pH 7.8 (reference, 1.00)): 1.00
degraded at 1 h, 200 µM ([1]; phosphate buffer, 200 μM solution, pH 7.4, 37° C., read-out: rate of hydrolysis): ~0.6%
60-day "cures" (L1210 leukemia; 7.5 mg/kg, six daily intraperitoneal doses): 80%
antineoplastic activity / curative effect (in words) (L1210 leukemia): highly active against the L1210 leukemia; also recorded: produced their curative effects at relatively low dosage levels
% 60-day survivors (L1210 leukemia): 80%
% T/C (average survival time of treated/control mice × 100) (L1210 leukemia): 341%
AvΔ wt % (average percent change in body weight from onset to termination of therapy) (L1210 leukemia): +1.0%
Opt. effective daily dose (L1210 leukemia): 7.5 mg/kg
Relative alkylation of NBP ([2]; bovine serum (20%)): 5.7
Relative alkylation of NBP ([2]; no serum): 1.0
Rate of hydrolysis ([3]; 0% v/v bovine serum): 0.02 nmol/mL/min
Rate of hydrolysis ([3]; 5% v/v bovine serum): 0.055 nmol/mL/min
Rate of hydrolysis ([3]; 10% v/v bovine serum): 0.10 nmol/mL/min
Rate of hydrolysis ([3]; 20% v/v bovine serum): 0.26 nmol/mL/min
decrease in ability of bovine serum to hydrolyze the compound after boiling ([3]; boiled dilute solutions of bovine serum): > 75%
water solubility (in words) (Water solubility): most water-soluble analogs of this class

Compound: CS(=O)(=O)N(CCCl)N(S(C)(=O)=O)S(C)(=O)=O [PRIOR ART, 1-(2-chloroethyl)-1,2,2-tris(methylsulfonyl)hydrazine, reference compound]
% 60-day survivors (L1210 leukemia): 100%
AvΔ wt % (average percent change in body weight from onset to termination of therapy) (L1210 leukemia): -7.2%
Opt. effective daily dose (L1210 leukemia): 60 mg/kg
antineoplastic activity (in words) [4]: displays potent antineoplastic activity

Compound: CCCCS(=N)(=O)CCC(N)C(=O)O (stereo not drawn) [Buthionine sulfoximine]
reversal of resistance to alkylating agents (in words) [5]: reverse this resistance by reducing cellular GSH levels

Compound: CS(=O)(=O)N(CCCl)N(C(=O)c1ccccc1)S(C)(=O)=O [Example 6, 1-Benzoyl-1,2-bis(methylsulfonyl)-2-(2-chloroethyl)hydrazine]
sensitivity to serum hydrolysis (in words) [6]: two most sensitive compounds
% 60-day survivors (L1210 leukemia): 20%
% T/C (average survival time of treated/control mice × 100) (L1210 leukemia): 160%
AvΔ wt % (average percent change in body weight from onset to termination of therapy) (L1210 leukemia): -7.7%
Opt. effective daily dose (L1210 leukemia): 20 mg/kg
Rate of hydrolysis ([3]; 0% v/v bovine serum): 0.06 nmol/mL/min
Rate of hydrolysis ([3]; 5% v/v bovine serum): 0.22 nmol/mL/min
Rate of hydrolysis ([3]; 10% v/v bovine serum): 0.52 nmol/mL/min
Rate of hydrolysis ([3]; 20% v/v bovine serum): 1.31 nmol/mL/min

Compound: CCCC(=O)N(N(CCCl)S(C)(=O)=O)S(C)(=O)=O [Example 3, 1,2-Bis(methylsulfonyl)-1-(n-butyryl)-2-(2-chloroethyl)hydrazine]
% 60-day survivors (L1210 leukemia): 20%
% T/C (average survival time of treated/control mice × 100) (L1210 leukemia): 207%
AvΔ wt % (average percent change in body weight from onset to termination of therapy) (L1210 leukemia): 0.0%
Opt. effective daily dose (L1210 leukemia): 10 mg/kg

Compound: CN(N(S(C)(=O)=O)S(C)(=O)=O)S(C)(=O)=O [1-Methyl-1,2,2-tris(methylsulfonyl)hydrazine]
antineoplastic activity (in words) [4]: also showed antineoplastic activity
toxicity (in words) [4]: relatively less toxic

Compound: CCC(=O)N(N(CCCl)S(C)(=O)=O)S(C)(=O)=O [Example 2, 1,2-Bis(methylsulfonyl)-1-(2-chloroethyl)-2-propionylhydrazine]
"cures" of mice bearing the L1210 leukemia (L1210 leukemia; 5 mg/kg×6): 60%
"cures" of mice bearing the L1210 leukemia (L1210 leukemia; 10 and 15 mg/kg×6): 80-90%
antineoplastic activity / curative effect (in words) (L1210 leukemia): appeared to be the most potent; also recorded: produced their curative effects at relatively low dosage levels
% 60-day survivors (L1210 leukemia): 90%
% T/C (average survival time of treated/control mice × 100) (L1210 leukemia): 217%
AvΔ wt % (average percent change in body weight from onset to termination of therapy) (L1210 leukemia): -6.4%
Opt. effective daily dose (L1210 leukemia): 10 mg/kg
water solubility (in words) (Water solubility): most water-soluble analogs of this class

increase in amount of methanol generated relative to phosphate buffer alone ([7]; 1 mM GSH, 10 min, phosphate buffer pH 7.4, 37° C.): approximately 10 fold
effect of GST on GSH activation rate (in words) [8]: doubling the activation rate
Compound: CN(N(C(=O)c1ccccc1)S(C)(=O)=O)S(C)(=O)=O [2-benzoyl-1,2-bis(methylsulfonyl)-1-methylhydrazine]
dependence of rate of activation on GSH concentration (in words) ([7]; GSH): directly proportional to the GSH concentration

Compound: CC(C)(C)C(=O)N(N(CCCl)S(C)(=O)=O)S(C)(=O)=O [Example 4, 1,2-Bis(methylsulfonyl)-1-(2-chloroethyl)-2-pivaloylhydrazine]
% 60-day survivors (L1210 leukemia): 60%
% T/C (average survival time of treated/control mice × 100) (L1210 leukemia): 302%
AvΔ wt % (average percent change in body weight from onset to termination of therapy) (L1210 leukemia): 0.0%
Opt. effective daily dose (L1210 leukemia): 20 mg/kg

Compound: COCC(=O)N(N(CCCl)S(C)(=O)=O)S(C)(=O)=O [Example 5, 1,2-Bis(methylsulfonyl)-1-(2-chloroethyl)-2-methoxyacetylhydrazine]
sensitivity to serum hydrolysis (in words) [6]: two most sensitive compounds
"cures" of tumor-bearing mice (L1210 leukemia; 10 mg/kg×6): 100%
antineoplastic activity / curative effect (in words) (L1210 leukemia): produced their curative effects at relatively low dosage levels
% 60-day survivors (L1210 leukemia): 100%
AvΔ wt % (average percent change in body weight from onset to termination of therapy) (L1210 leukemia): -8.4%
lethality (L1210 leukemia; higher dose levels examined (above 10 mg/kg×6)): lethal at the higher dose levels examined
Opt. effective daily dose (L1210 leukemia): 10 mg/kg
water solubility (in words) (Water solubility): most water-soluble analogs of this class
